In ChEMBL document CHEMBL1201862, “PubChem BioAssay data set” (2004):
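A five-concentration, 48-hour dose response in 96-well plates underlies each endpoint, interpolated linearly between surrounding concentrations. GI50: concentration for 50% inhibition of growth.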 Calls of active or inactive are those of the source. No stated cut-off is given here; in the data, active = GI50 up to about 1.1 µM and inactive = higher.

Key:
Test in all cases: DTP human tumour cell line panel, 48 h
NCI-H23 = system: NCI-H23
SF-539 = system: SF-539
KM12 = system: KM12
EKVX = system: EKVX
DU-145 = system: DU-145
A498 = system: A498
786-0 = system: 786-0
HCC 2998 = system: HCC 2998
OVCAR-5 = system: OVCAR-5
ACHN = system: ACHN
MOLT-4 = system: MOLT-4
K562 = system: K562
HL-60 = system: HL-60
OVCAR-8 = system: OVCAR-8
SR = system: SR
UO-31 = system: UO-31
M14 = system: M14
OVCAR-4 = system: OVCAR-4
UACC-62 = system: UACC-62
SK-OV-3 = system: SK-OV-3

| SMILES | GI50 (NCI-H23) | GI50 (SF-539) | GI50 (KM12) | GI50 (EKVX) | GI50 (DU-145) | GI50 (A498) | GI50 (786-0) | GI50 (HCC 2998) | GI50 (OVCAR-5) | GI50 (ACHN) | GI50 (MOLT-4) | GI50 (K562) | GI50 (HL-60) | GI50 (OVCAR-8) | GI50 (SR) | GI50 (UO-31) | GI50 (M14) | GI50 (OVCAR-4) | GI50 (UACC-62) | GI50 (SK-OV-3) |
| --- | --- | --- | --- | --- | --- | --- | --- | --- | --- | --- | --- | --- | --- | --- | --- | --- | --- | --- | --- | --- |
| Cc1nc(N)c(N2CCN(C#N)CC2)c(O)n1 | > 100 µM (inactive) | > 100 µM (inactive) | > 100 µM (inactive) | > 100 µM (inactive) | > 100 µM (inactive) | > 100 µM (inactive) | > 100 µM (inactive) | > 100 µM (inactive) | > 100 µM (inactive) | > 100 µM (inactive) | > 100 µM (inactive) | > 100 µM (inactive) | > 10 µM (inactive) | > 100 µM (inactive) | > 100 µM (inactive) | > 100 µM (inactive) | > 100 µM (inactive) | – | – | – |
| O=C1/C(=C/c2ccc([N+](=O)[O-])cc2)C(=O)N(c2ccccc2)C1c1ccccc1 (stereo unspecified) | > 10 µM (inactive) | > 10 µM (inactive) | > 10 µM (inactive) | > 10 µM (inactive) | > 10 µM (inactive) | > 10 µM (inactive) | > 10 µM (inactive) | > 10 µM (inactive) | > 10 µM (inactive) | > 10 µM (inactive) | > 10 µM (inactive) | – | > 10 µM (inactive) | > 10 µM (inactive) | > 10 µM (inactive) | > 10 µM (inactive) | > 10 µM (inactive) | > 10 µM (inactive) | > 10 µM (inactive) | > 10 µM (inactive) |
| N#C/C=c1/c2ccccc2n2nc3ccccc3c12 | 22.3 µM (inactive) | 8.69 µM (inactive) | 17.3 µM (inactive) | 24.5 µM (inactive) | > 100 µM (inactive) | 13.7 µM (inactive) | 5.01 µM (inactive) | 26.5 µM (inactive) | 67.6 µM (inactive) | 6.71 µM (inactive) | – | > 100 µM (inactive) | > 100 µM (inactive) | 11.7 µM (inactive) | 5.79 µM (inactive) | 10.8 µM (inactive) | 51.9 µM (inactive) | 11.6 µM (inactive) | 14.9 µM (inactive) | 5.65 µM (inactive) |
| CC(=O)N1c2ccccc2C2=NN=C(N(C)C)SC21 (stereo unspecified) | 5.19 µM (inactive) | 3.48 µM (inactive) | 3.18 µM (inactive) | 2.75 µM (inactive) | 1.58 µM (inactive) | 3.17 µM (inactive) | 2.48 µM (inactive) | 2.72 µM (inactive) | 4.24 µM (inactive) | 2.54 µM (inactive) | 3.09 µM (inactive) | 3.37 µM (inactive) | 2.14 µM (inactive) | 2.65 µM (inactive) | 3.28 µM (inactive) | 1.45 µM (inactive) | 1.84 µM (inactive) | 10.4 µM (inactive) | – | – |
| CN1CCCC2C(c3ccccc3)C(C3=NCCCC3)C(c3ccccc3)CC21 (stereo unspecified) | 64.7 µM (inactive) | 16 µM (inactive) | 53.2 µM (inactive) | 71 µM (inactive) | > 100 µM (inactive) | 42.6 µM (inactive) | 24.5 µM (inactive) | 15.6 µM (inactive) | > 100 µM (inactive) | 72.3 µM (inactive) | 31.3 µM (inactive) | 17.2 µM (inactive) | 31.8 µM (inactive) | 39.5 µM (inactive) | 32.1 µM (inactive) | – | 20.7 µM (inactive) | 73.6 µM (inactive) | 17.8 µM (inactive) | > 100 µM (inactive) |
| c1ccc2cc(CNCCCCNCCCNCc3ccc4ccccc4c3)ccc2c1 | 1.8 µM (inactive) | 1.69 µM (inactive) | 0.403 µM (active) | 1.57 µM (inactive) | 1.27 µM (inactive) | 1.99 µM (inactive) | 0.423 µM (active) | 0.48 µM (active) | 1.87 µM (inactive) | 1.42 µM (inactive) | 0.256 µM (active) | 0.259 µM (active) | – | 1.69 µM (inactive) | 0.351 µM (active) | 1.42 µM (inactive) | 1.33 µM (inactive) | 1.6 µM (inactive) | 1.75 µM (inactive) | 1.76 µM (inactive) |
| O=C(O)C(Cc1ccc(O)cn1)NC(=O)C(F)(F)F (stereo unspecified) | > 100 µM (inactive) | > 100 µM (inactive) | > 100 µM (inactive) | > 100 µM (inactive) | > 100 µM (inactive) | > 100 µM (inactive) | > 100 µM (inactive) | > 100 µM (inactive) | > 100 µM (inactive) | > 100 µM (inactive) | – | > 100 µM (inactive) | > 100 µM (inactive) | > 100 µM (inactive) | > 100 µM (inactive) | > 100 µM (inactive) | – | – | – | – |
| CN(C)CCCn1nc(N)c2nc3cc(Cl)ccc3nc21 | 81.8 µM (inactive) | 38.2 µM (inactive) | 43.9 µM (inactive) | > 66.5 µM (inactive) | 54.8 µM (inactive) | 52.1 µM (inactive) | 50.7 µM (inactive) | 35.7 µM (inactive) | 40.4 µM (inactive) | 39.7 µM (inactive) | > 50.4 µM (inactive) | > 76.2 µM (inactive) | – | 40.2 µM (inactive) | 32.5 µM (inactive) | 28.6 µM (inactive) | 20.7 µM (inactive) | > 100 µM (inactive) | 20.7 µM (inactive) | > 100 µM (inactive) |
| O=C(O)Cn1ccc(=O)c2ccc([N+](=O)[O-])cc21 | > 100 µM (inactive) | > 100 µM (inactive) | > 100 µM (inactive) | – | > 100 µM (inactive) | > 100 µM (inactive) | > 100 µM (inactive) | > 100 µM (inactive) | > 100 µM (inactive) | > 100 µM (inactive) | > 100 µM (inactive) | > 100 µM (inactive) | > 100 µM (inactive) | > 100 µM (inactive) | > 100 µM (inactive) | > 100 µM (inactive) | > 100 µM (inactive) | – | > 100 µM (inactive) | > 100 µM (inactive) |
| OC[C@H]1N[C@H](CO)[C@@H](O)[C@H]1O | > 100 µM (inactive) | > 100 µM (inactive) | > 100 µM (inactive) | > 100 µM (inactive) | > 100 µM (inactive) | > 100 µM (inactive) | > 100 µM (inactive) | > 100 µM (inactive) | > 100 µM (inactive) | > 100 µM (inactive) | > 100 µM (inactive) | > 100 µM (inactive) | > 100 µM (inactive) | > 100 µM (inactive) | > 100 µM (inactive) | > 100 µM (inactive) | > 100 µM (inactive) | – | > 100 µM (inactive) | > 100 µM (inactive) |
| COc1cc2nc(-c3ccccc3)cc(O)c2c(OC)c1OC | > 100 µM (inactive) | – | > 100 µM (inactive) | > 100 µM (inactive) | > 100 µM (inactive) | > 100 µM (inactive) | > 100 µM (inactive) | > 100 µM (inactive) | > 100 µM (inactive) | > 100 µM (inactive) | > 100 µM (inactive) | > 100 µM (inactive) | > 100 µM (inactive) | > 100 µM (inactive) | > 100 µM (inactive) | 98.4 µM (inactive) | > 100 µM (inactive) | > 100 µM (inactive) | > 100 µM (inactive) | > 100 µM (inactive) |
